In US11331328B2, “Compositions and methods for inhibiting antiapoptotic Bcl-2 proteins as anti-aging agents” (priority 2014, dated 2022):

Experiments:
[1] = system: senescent WI38 cells induced by expression of oncogenic Ras (Ras-SC); test: Cell viability, LD50 in oncogenic Ras-induced senescent WI-38 cells; format: cell-based, human; conditions: Table 2
Method: Human WI-38 fibroblasts (WI38 cells, #CCL-75™), human IMR-90 fibroblasts (IMR90 cells, #CCL-186™), human renal epithelial cells (REC cells, #PCS-400-012™) were obtained from ACTT (Manassas, Va., USA). Mouse embryonic fibroblasts (MEF) were isolated from mouse embryos as described^1. All cells were cultured in a complete medium (CM) (Dulbecco's Modified Eagle Medium supplemented with 10% fetal bovine serum [FBS], 100 U/ml penicillin, and 100 μg/ml streptomycin [all from Atlanta Biologicals, Norcross, Ga., and USA]) in a humidified incubator at 37° C. and 5% CO2. Low passages of WI-38 cells (<25), IMR-90 (<25), REC cells (<25) and MEF (<3) were used as non-senescent controls or for induction of senescence to avoid replicative senescence. To induce replicative senescence, WI-38 cells were subcultivated until cell division ceased after about 38 passages or 60 population doublings (FIG. 5)^2. […]
Flow cytometry: Non-senescent and senescent cells were seeded into wells of 24- or 48-well at about 70% of confluence. […] Viable cells (PI^− cells) were numerated by flow cytometry at a constant flow rate and calculated as a percentage of control cells treated with vehicle using the formula: percentage of control=(Ndrug/NC)×100, where Ndrug and NC represent the absolute number of PI^− viable cells of drug-treated and vehicle-treated cells, respectively. […]

caspase 3, caspase 8 = test: Western blot analysis of caspase activation; format: cell-based, human; conditions: IR-SC WI-38; 1.25 μM ABT263, 24 h
Method: Cells (1×10^6) were lysed in 100 μl lysis buffer (20 mM Tris-HCl, pH 7.4, 150 mM NaCl, 1 mM EDTA. 1 mM EGTA, 10% glycerol, 1.0% NP-40, 0.1 M NaF, 1 mM DTT, 1 mM PMSF, 1 mM NaVO4, 2 μg/ml leupeptin and aprotinin) for 30 min on ice, and cell extracts were sonicated 3 times (5 secs each time) on ice with a 25-sec interval in between using a Sonic Dismembrator Ultrasonic Convertor (Model F60, from Fisher, Pittsburgh, Pa., USA). The protein concentrations were quantified using the Bio-Rad Dc protein assay kit (Bio-Rad Laboratories, Hercules, Calif., USA). Equal amounts of protein (25-50 μg/lane) from each extract was resolved on 12% SDS-PAGE gels. Proteins were blotted to NOVEX NC membranes (Life Technologies, Carlsbad, Calif., USA). The membranes were blocked with TBS-T (5% nonfat milk in 25 mM Tris-HCl, pH 7.4. 3 mM KCl, 140 mM NaCl, and 0.05% Tween) and subsequently probed with primary antibodies at a predetermined optimal concentration as indicated in Supplementary Table 3 overnight at 4° C. or for 1 h at room temperature. […] After three washes with TBS-T, the blots were detected using the ECL Western Blotting Detection Reagents (Cat #WBKLS0100) (EMD MILLIPORE. Newmarket, Suffolk, UK) and recorded by exposure of the blots to X-ray film (Pierce Biotech, Rockford, Ill., USA).

[2] = system: senescent HSCs induced by TBI
Method: The femora and tibiae were harvested from mice immediately after they were euthanized. BM cells were flushed from the bones into HBSS containing 2% FCS using a 21-gauge needle and syringe. […] The labeled mature lymphoid and myeloid cells were depleted twice by incubation with goat anti-rat IgG paramagnetic beads (Dynal Inc, Lake Success, N.Y., USA) at a bead:cell ratio of approximately 4:1. Cells binding the paramagnetic beads were removed with a magnetic field. The negatively isolated Lin^− cells were washed twice with 2% FCS/HBSS and resuspended in complete medium (RPMI1640 medium supplemented with 10% FCS, 2 mM L-glutamine, 10 μM HEPES buffer, and 100 U/ml penicillin and streptomycin) at 1×10^6/ml. HSCs (CD150^+CD48^− LSK^+ cells) were sorted by a BD FACSAria II cell sorter (BD Biosciences, San Jose, Calif.) after Lin^− cells were preincubated with anti-CD16/32 antibody to block the Fcγ receptors and then stained with anti-Sca1-PE, c-Kit-APC-Cy7, CD150-APC and CD48-Pacific blue antibodies. Dead cells were excluded by gating out the cells that stained positive with PI.
Feeder cell stromal layers were prepared by seeding 10^3/well FBMD-1 stromal cells in each well of flat-bottom 96-well plates (Falcon, Lincoln Park, N.J.). One week later, BM-MNCs resuspended in CAFC medium (Iscove's MDM supplemented with 20% horse serum, 10^−5 M hydrocortisone, 10^−5 M 2-mercaptoethanol, 100 U/ml penicillin, and 100 μg/ml streptomycin) after various treatments described above were overlaid on these stromal layers in 6 dilutions at 3-fold intervals. Twenty wells were plated for each dilution to allow limiting dilution analysis of the precursor cells forming hematopoietic cell clones under the stromal layer. Cultures were fed weekly by changing one-half of the media. The frequencies of CAFC were determined on days 14 and 35. Wells were scored positive if at least one phase-dark hematopoietic clone (containing 5 or more cells) was seen. The frequency of CAFC was then calculated by using Poisson statistics as described previously^9, 10. […]

CC1(C)CCC(c2ccc(Cl)cc2)=C(CN2CCN(c3ccc(C(=O)NS(=O)(=O)c4ccc(N[C@H](CCN5CCOCC5)CSc5ccccc5)c(S(=O)(=O)C(F)(F)F)c4)cc3)CC2)C1 [ABT263, navitoclax]
LD50 [1]: 0.62 µM | caspase activation (caspase 3, caspase 8): SCs activated caspase 3, but not caspase 8 | HSC myeloid skewing, quiescence and persistent DNA damage ([2]; TBI mice, Ki67, γH2AX, BMT): attenuated IR-induced HSC myeloid skewing and disruption of HSC quiescence, and reduced HSCs with persistent DNA damage | BM HSC and HPC numbers ([2]; after ABT263 treatment of CTL or TBI mice): did not quantitatively reduce BM HSCs or hematopoietic progenitor cells (HPCs) | clonogenicity (CAFC) and long-term engraftment ability of HSCs ([2]; day-35 CAFC, competitive and serial BMT): significantly improved the clonogenicity and long-term engraftment ability of HSCs
